Columns and labels:
Assay type in all cases: in vivo
[1] = system: Comstock mealybug (Pseudococcus comstocki); experiment: Test Example 1: test on effects against Comstock mealybug, leaf disk spray; conditions: foliar, 168 h, first instar larvae, 7 days after application, read-out: Corrected mortality
From the text: (§1) A plastic cup (diameter 9 cm, height: 4 cm) filled with tap water was covered with a plastic lid (diameter 9 cm, with a hole having a diameter of 0.5 cm at its center portion), and an absorbent cotton sheet (diameter 9 cm) as shown in FIG. 1 was placed thereon. The cut portion of the absorbent cotton sheet was put into the plastic cup through the hole at the center portion of the lid and dipped in the tap water. Filter paper (diameter 9 cm) was placed on the absorbent cotton sheet, and a kidney bean primary leaf was further placed thereon so that the abaxial side faced upward. The kidney bean primary leaf was covered with filter paper (diameter 9 cm, with a hole having a diameter of 3 cm at its center portion) to prepare a leaf disk.
(§2) Thirty first instar larvae of Comstock mealybug (Pseudococcus comstocki) were released on the hole at the center portion of the leaf disk, and the leaf disk was left at rest in a breeding room (25° C., humidity: 60%). Two days later, the number of surviving larvae in the leaf disk was examined, and then a chemical solution at predetermined concentrations of active ingredients was sprayed on the leaf disc by a rotary spraying apparatus (tower sprayers TS-301) in an application amount corresponding to 100 L/10 a, and the leaf disk was left at rest in the breeding room. Seven days after application, the number of surviving larvae was examined, and the difference with the number of surviving larvae before application was taken as the mortality. The same test was conducted using tap water as a negative control, the corrected mortality (%) was calculated in accordance with the formula 1, and the results are shown in Table 1. Further, in accordance with the Colby's formula, the theoretical value (%) was calculated based on the obtained corrected mortality and shown in brackets in Table 1. The composition of the present invention has a synergistic pesticidal effect when the corrected mortality is higher than the theoretical value by the Colby's formula. The test was conducted three times. Corrected mortality (%)=100×((morality in treated area−mortality in control area)/(100−mortality in control area)) Formula 1

[2] = system: Comstock mealybug (Pseudococcus comstocki); experiment: Test Example 2: same test as Test Example 1, different flonicamid concentration; conditions: 168 h, first instar larvae, 7 days after application, read-out: Corrected mortality
From the text: as §1
as §2, with “Corrected mortality (%)=100×((morality in treated area−mortality in control area)/(100−mortality in control area)) Formula 1” left out

[3] = system: Comstock mealybug (Pseudococcus comstocki); experiment: Test Example 3: same test as Test Example 1, different flonicamid and D-limonene concentrations; conditions: 168 h, first instar larvae, 7 days after application, read-out: Corrected mortality
From the text: as §1, §2
The test was conducted in the same manner as in Test Example 1 except that the concentrations of flonicamid and D-limonene were different.

| SMILES | mortality at 720 ppm ([1]; D-limonene 720 ppm alone) [%] | mortality at 1440 ppm ([1]; D-limonene 1440 ppm alone) [%] | mortality at 720 ppm ([2]; D-limonene 720 ppm alone) [%] | mortality at 1440 ppm ([2]; D-limonene 1440 ppm alone) [%] | mortality at 180 ppm ([3]; D-limonene 180 ppm alone) [%] | mortality at 360 ppm ([3]; D-limonene 360 ppm alone) [%] | mortality at 10 ppm ([1]; flonicamid 10 ppm alone) [%] | mortality at 20 ppm ([1]; flonicamid 20 ppm alone) [%] | mortality at 160 ppm ([2]; flonicamid 160 ppm alone) [%] | mortality at 80 ppm ([3]; flonicamid 80 ppm alone) [%] | mortality at 160 ppm ([3]; flonicamid 160 ppm alone) [%] |
| --- | --- | --- | --- | --- | --- | --- | --- | --- | --- | --- | --- |
| C=C(C)[C@H]1CC=C(C)CC1 [D-Limonene, (4R)-p-menth-1,8-diene] | 7.7 | 27.7 | 4.5 | 21.3 | 0 | 35.1 |  |  |  |  |  |
| N#CCNC(=O)c1cnccc1C(F)(F)F [Flonicamid, N-cyanomethyl-4-trifluoromethyl-3-pyridinecarboxamide] |  |  |  |  |  |  | 7.9 | 16.1 | 68.8 | 25.5 | 55 |
